This passage reports Emax and EC50 results from patent US9868746B2, “Substituted 5-aminothieno[2,3-C]pyridazine-6-carboxamide analogs as positive allosteric modulators of the muscarinic acetylcholine receptor M4” (Vanderbilt University, priority 2012, dated 2018).

For this assay, the target named is T1, mAChR M4 (Homo sapiens, UniProt P08173).
T1 construct: expressed in transfected cells; host or cells: CHO-K1 cells stably transfected with M4 cDNA and chimeric G-protein Gqi5
T1 sequence (P08173 1-479): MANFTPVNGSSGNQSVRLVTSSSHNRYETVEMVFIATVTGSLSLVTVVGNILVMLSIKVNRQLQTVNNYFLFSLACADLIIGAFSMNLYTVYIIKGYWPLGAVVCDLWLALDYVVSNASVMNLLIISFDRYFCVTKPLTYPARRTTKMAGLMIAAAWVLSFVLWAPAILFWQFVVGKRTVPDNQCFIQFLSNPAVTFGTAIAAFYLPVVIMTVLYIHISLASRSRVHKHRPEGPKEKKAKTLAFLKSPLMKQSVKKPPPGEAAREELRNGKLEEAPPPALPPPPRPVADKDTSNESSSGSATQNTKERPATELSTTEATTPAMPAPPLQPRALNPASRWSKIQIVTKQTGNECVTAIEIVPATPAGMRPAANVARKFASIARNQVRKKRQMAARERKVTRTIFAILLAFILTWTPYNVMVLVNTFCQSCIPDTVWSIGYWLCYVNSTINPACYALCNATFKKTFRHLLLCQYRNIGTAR
Description: mAChR M4 cell-based functional assay (calcium mobilization, potentiation of EC20 acetylcholine response). The note with it: for Emax at 30 µM: % ACh maximum at 30 μM; for EC50: mAChR M4 cell-based functional assay, >10,000 estimated for low potency compounds without plateau, read-out: EC50.

Regarding `Cc1nnc2sc(C(=O)N3CCC(NC(=O)c4ccc(F)c(F)c4)C3)c(N)c2c1C` (stereo not shown) [Example B217], the Emax at 30 µM was found to be 53% and the EC50 is 1100 nM.

`CCCCCC(=O)NC1CCN(C(=O)c2sc3nnc(C)c(C)c3c2N)C1` (stereo not shown) [Example B218]: the Emax at 30 µM stood at 61% and the EC50 is 5000 nM.

Consider `Cc1nnc2sc(C(=O)NC3CCN(C(=O)c4ccc(F)cc4)C3)c(N)c2c1C` (stereo not shown) [Example B219], for which the Emax at 30 µM came to 77% and the concentration for a half-maximal effect (EC50) was 350 nM.

In the case of `Cc1nnc2sc(C(=O)N3CCC(NC(=O)OCc4ccccc4)C3)c(N)c2c1C` (stereo not shown) [Example B220], the Emax at 30 µM amounted to 67% and the EC50 is 830 nM.

As to `Cc1nnc2sc(C(=O)NC3CCN(C(=O)CCc4ccccc4)C3)c(N)c2c1C` (stereo not shown) [Example B221], the Emax at 30 µM was found to be 72% and the EC50 was 1300 nM.

On to `Cc1nnc2sc(C(=O)NC3CCN(C(=O)OC(C)C)C3)c(N)c2c1C` (stereo not shown) [Example B222], for which the Emax at 30 µM came out at 50% and the EC50 was above 10000 nM.

On to `Cc1nnc2sc(C(=O)N3CCC(NS(=O)(=O)c4ccc(F)cc4)C3)c(N)c2c1C` (stereo not shown) [Example B223], for which the Emax at 30 µM worked out at 61% and the EC50 is 2400 nM.

Turning to `CCCOC(=O)N1CCC(NC(=O)c2sc3nnc(C)c(C)c3c2N)C1` (stereo not shown) [Example B224], the Emax at 30 µM stood at 77% and the EC50 was 610 nM.

With `Cc1ccc(C(=O)NC2CCN(C(=O)c3sc4nnc(C)c(C)c4c3N)C2)cc1` (stereo not shown) [Example B225], the Emax at 30 µM was 62% and the EC50 was 1400 nM.

For the molecule `Cc1nnc2sc(C(=O)NC3CCN(C(=O)C4CCCCC4)C3)c(N)c2c1C` (stereo not shown) [Example B226], the Emax at 30 µM was 84% and the EC50 was 430 nM.

`Cc1nnc2sc(C(=O)NC3CCN(C(=O)Cc4cccs4)C3)c(N)c2c1C` (stereo not shown) [Example B227]: the Emax at 30 µM was 76% and the EC50 was 920 nM.

With `Cc1nnc2sc(C(=O)NC3CCN(C(=O)c4ccc(F)cc4F)C3)c(N)c2c1C` (stereo not shown) [Example B228], the Emax at 30 µM is 81% and the EC50 was 350 nM.

Consider `Cc1nnc2sc(C(=O)NC3CCN(S(=O)(=O)c4ccccc4)C3)c(N)c2c1C` (stereo not shown) [Example B229], for which the Emax at 30 µM worked out at 68% and the concentration giving a half-maximal response (EC50) is 550 nM.

Consider `Cc1nnc2sc(C(=O)N3CCC(NC(=O)CC4CCCCC4)C3)c(N)c2c1C` (stereo not shown) [Example B230], for which the Emax at 30 µM stood at 63% and the EC50 is 3400 nM.

Take `COc1cccc(C(=O)N2CCC(NC(=O)c3sc4nnc(C)c(C)c4c3N)C2)c1` (stereo not shown) [Example B231]: the Emax at 30 µM came to 78% and the EC50 is 230 nM.

As for `CCCCCC(=O)N1CCC(NC(=O)c2sc3nnc(C)c(C)c3c2N)C1` (stereo not shown) [Example B232], the Emax at 30 µM is 77% and the EC50 is 530 nM.

Regarding `COCCOc1ccc(CNC(=O)c2sc3nnc(C)c(C)c3c2N)cc1` [Example B233], the Emax at 30 µM was 78% and the EC50 was 99 nM.

With `Cc1nnc2sc(C(=O)N3CCC(NS(=O)(=O)CCCc4ccccc4)C3)c(N)c2c1C` (stereo not shown) [Example B234], the Emax at 30 µM was found to be 50% and the EC50 is 810 nM.

Take `Cc1nnc2sc(C(=O)NC3CCN(C(=O)Cc4ccccc4)C3)c(N)c2c1C` (stereo not shown) [Example B235]: the Emax at 30 µM is 72% and the EC50 is 360 nM.

Regarding `Cc1nnc2sc(C(=O)N3CCC(NC(=O)C4CC4)C3)c(N)c2c1C` (stereo not shown) [Example B236], the Emax at 30 µM was 66% and the EC50 was 5000 nM.

Regarding `Cc1nnc2sc(C(=O)N3CCC(NC(=O)C4CCCCC4)C3)c(N)c2c1C` (stereo not shown) [Example B237], the maximal effect (Emax) at 30 µM was found to be 62% and the EC50 is 3400 nM.

On to `Cc1nnc2sc(C(=O)NCc3ccc(N4CCCC4=O)cc3)c(N)c2c1C` [Example B238], for which the Emax at 30 µM is 68% and the EC50 is 130 nM.

On to `Cc1nnc2sc(C(=O)NC3CCN(C(=O)C4CCC4)C3)c(N)c2c1C` (stereo not shown) [Example B239], for which the Emax at 30 µM was found to be 84% and the EC50 was 1200 nM.

Consider `Cc1nnc2sc(C(=O)N3CCC(NC(=O)c4ccccn4)C3)c(N)c2c1C` (stereo not shown) [Example B240], for which the Emax at 30 µM came out at 53% and the EC50 is above 10000 nM.

Turning to `Cc1nnc2sc(C(=O)NC3CCN(C(=O)CC4CCCCC4)C3)c(N)c2c1C` (stereo not shown) [Example B241], the Emax at 30 µM was determined as 64% and the EC50 is 860 nM.

With `Cc1nnc2sc(C(=O)NC3CCN(C(=O)C4CC4)C3)c(N)c2c1C` (stereo not shown) [Example B242], the maximal response (Emax) at 30 µM worked out at 79% and the EC50 is 1300 nM.

Turning to `Cc1nnc2sc(C(=O)NC3CCN(C(=O)c4c(F)cccc4F)C3)c(N)c2c1C` (stereo not shown) [Example B243], the Emax at 30 µM came to 78% and the EC50 is 590 nM.

Consider `Cc1ccc(S(=O)(=O)N2CCC(NC(=O)c3sc4nnc(C)c(C)c4c3N)C2)cc1` (stereo not shown) [Example B244], for which the Emax at 30 µM is 79% and the EC50 is 580 nM.

Take `Cc1nnc2sc(C(=O)NC3CCN(S(=O)(=O)c4ccc(OC(F)(F)F)cc4)C3)c(N)c2c1C` (stereo not shown) [Example B245]: the Emax at 30 µM amounted to 73% and the EC50 is 1200 nM.

On to `Cc1nnc2sc(C(=O)N3CCC(NC(=O)c4ccccc4)C3)c(N)c2c1C` (stereo not shown) [Example B246], for which the Emax at 30 µM stood at 78% and the EC50 was 4600 nM.

For `Cc1nnc2sc(C(=O)NC3CCN(C(=O)C4CC4c4ccccc4)C3)c(N)c2c1C` (stereo not shown) [Example B247], the Emax at 30 µM was 73% and the concentration giving a half-maximal response (EC50) is 390 nM.

As for `Cc1nnc2sc(C(=O)NC34CC(C3)C4)c(N)c2c1C` [Example B248], the Emax at 30 µM amounted to 81% and the EC50 was 630 nM.

For `Cc1nnc2sc(C(=O)N3CCC(NC(=O)CCc4ccccc4)C3)c(N)c2c1C` (stereo not shown) [Example B249], the Emax at 30 µM turned out to be 48% and the EC50 was above 10000 nM.

`Cc1nnc2sc(C(=O)NCc3ccc4[nH]c(C)c(C)c4c3)c(N)c2c1C` [Example B250]: the Emax at 30 µM stood at 75% and the EC50 was 190 nM.

With `Cc1nnc2sc(C(=O)NCc3ccc4c(cnn4C)c3)c(N)c2c1C` [Example B251], the Emax at 30 µM came out at 79% and the EC50 is 190 nM.

Regarding `Cc1nnc2sc(C(=O)NC3CCN(S(C)(=O)=O)C3)c(N)c2c1C` (stereo not shown) [Example B252], the Emax at 30 µM turned out to be 83% and the EC50 is 1700 nM.

Consider `Cc1nnc2sc(C(=O)NC3CCN(S(=O)(=O)c4cccc(F)c4)C3)c(N)c2c1C` (stereo not shown) [Example B253], for which the Emax at 30 µM came out at 71% and the EC50 is 390 nM.

With `Cc1nnc2sc(C(=O)N3CCC(NC(=O)C4CC4c4ccccc4)C3)c(N)c2c1C` (stereo not shown) [Example B254], the Emax at 30 µM was 65% and the EC50 was 1400 nM.

Turning to `Cc1nnc2sc(C(=O)NC3CCN(C(=O)c4ccc(F)c(F)c4)C3)c(N)c2c1C` (stereo not shown) [Example B255], the Emax at 30 µM came to 71% and the EC50 is 430 nM.

Turning to `Cc1nnc2sc(C(=O)N3CCC(NS(C)(=O)=O)C3)c(N)c2c1C` (stereo not shown) [Example B256], the Emax at 30 µM worked out at 65% and the EC50 was above 10000 nM.

With `Cc1ccc(S(=O)(=O)NC2CCN(C(=O)c3sc4nnc(C)c(C)c4c3N)C2)s1` (stereo not shown) [Example B257], the Emax at 30 µM is 62% and the EC50 was 1100 nM.

In the case of `Cc1nnc2sc(C(=O)NC3CCN(C(=O)CCCc4ccccc4)C3)c(N)c2c1C` (stereo not shown) [Example B258], the maximum response (Emax) at 30 µM was found to be 64% and the EC50 is 520 nM.

As for `Cc1nnc2sc(C(=O)N3CC4CN(C(=O)OC(C)(C)C)CC4C3)c(N)c2c1C` (stereo not shown) [Example B259], the Emax at 30 µM worked out at 53% and the EC50 was 900 nM.

Take `Cc1nnc2sc(C(=O)NCc3ccc(C(F)F)cc3)c(N)c2c1C` [Example B260]: the Emax at 30 µM was 81% and the EC50 is 34 nM.

As for `Cc1nnc2sc(C(=O)NC3CCN(c4cccnc4)C3)c(N)c2c1C` (stereo not shown) [Example B261], the Emax at 30 µM turned out to be 53% and the EC50 is 620 nM.

For the molecule `Cc1nnc2sc(C(=O)N3CC(C4CCCCC4)C3)c(N)c2c1C` [Example B262], the Emax at 30 µM turned out to be 66% and the EC50 is 50 nM.

In the case of `Cc1nnc2sc(C(=O)N3C[C@@H]4C[C@@H]3CN4C(=O)c3ccccc3)c(N)c2c1C` [Example B263], the Emax at 30 µM amounted to 41% and the EC50 is above 10000 nM.

As to `Cc1nnc2sc(C(=O)NC3CCN(c4ccccc4Cl)C3)c(N)c2c1C` (stereo not shown) [Example B264], the Emax at 30 µM came to 71% and the EC50 is 38 nM.

For the molecule `Cc1cccc(N2CCC(NC(=O)c3sc4nnc(C)c(C)c4c3N)C2)c1` (stereo not shown) [Example B265], the Emax at 30 µM stood at 60% and the EC50 is 120 nM.

`Cc1nnc2sc(C(=O)NC3CCN(c4ccncc4)C3)c(N)c2c1C` (stereo not shown) [Example B266]: the Emax at 30 µM was determined as 70% and the EC50 was 220 nM.

Consider `Cc1nnc2sc(C(=O)N3C[C@@H]4C[C@@H]3CN4S(C)(=O)=O)c(N)c2c1C` [Example B267], for which the Emax at 30 µM was determined as 51% and the EC50 is 5100 nM.

In the case of `Cc1nnc2sc(C(=O)NC3CCN(c4cccc(Cl)c4)C3)c(N)c2c1C` (stereo not shown) [Example B268], the Emax at 30 µM worked out at 68% and the EC50 was 180 nM.

Consider `Cc1ccccc1N1CCC(NC(=O)c2sc3nnc(C)c(C)c3c2N)C1` (stereo not shown) [Example B269], for which the Emax at 30 µM stood at 68% and the EC50 is 110 nM.

By Emax is commonly meant the greatest response seen or fitted, relative to the assay's reference. In general, EC50 refers to the concentration needed to bring the measured effect to its halfway point.
